Laboratory results as given in ChEMBL document CHEMBL3868607, “Development of a novel series of non-natural triaryl agonists and antagonists of the Pseudomonas aeruginosa LasR quorum sensing receptor” (Bioorg Med Chem, 2017).
Calls of active or inactive are those of the source. The calls are words filed in the database; no cut-off is given here.

Columns and labels:
Pseudomonas aeruginosa [1] = assay: Antagonist activity at Pseudomonas aeruginosa GFP-fused LasR expressed in Escherichia coli BL21(DE3) at 50 uM after 4 to 6 hrs by fluorescence assay relative to (S)-2-(4-bromophenyl)-N-(2-oxotetrahydrofuran-3-yl) acetamide
[2] = Antagonist activity at Pseudomonas aeruginosa GFP-fused LasR expressed in Escherichia coli BL21(DE3) after 4 to 6 hrs by fluorescence assay
[3] = Agonist activity at Pseudomonas aeruginosa GFP-fused LasR expressed in Escherichia coli BL21(DE3) after 4 to 6 hrs by fluorescence assay
Pseudomonas aeruginosa [4] = assay: Agonist activity at Pseudomonas aeruginosa GFP-fused LasR expressed in Escherichia coli BL21(DE3) at 50 uM after 4 to 6 hrs by fluorescence assay relative to 3-oxo-C12 HSL
Pseudomonas aeruginosa [5] = assay: Irreversible inhibition of Pseudomonas aeruginosa GFP-fused LasR expressed in Escherichia coli BL21(DE3) at 50 uM after 4 to 6 hrs by fluorescence assay
[6] = Antagonist activity at Pseudomonas aeruginosa LasR expressed in Escherichia coli DH5alpha after 4 to 6 hrs by beta-galactosidase reporter gene assay

| SMILES | Imax (Pseudomonas aeruginosa [1]) [%] | IC50 [2] [nM] | EC50 [3] [nM] | Emax (Pseudomonas aeruginosa [4]) [%] | inhibition (Pseudomonas aeruginosa [5]) | IC50 [6] [nM] |
| --- | --- | --- | --- | --- | --- | --- |
| O=C(NCc1cc(Br)cc(Br)c1OC(=O)c1ccccc1Cl)c1ccncn1 | 0 | > 100000 | 1630 | 90 | – | – |
| O=C(Cc1cc(Br)cc(Br)c1OC(=O)c1ccc(F)cc1Br)Nc1ccccc1[N+](=O)[O-] | – | – | 436 | 64 | – | – |
| O=C(Cc1cc(Br)cc(Br)c1OC(=O)c1ccccc1Cl)Nc1ccncn1 | 0 | > 100000 | 601 | 92 | – | – |
| O=C(CCCN1C(=O)C=CC1=O)Oc1c(Br)cc(Br)cc1CNC(=O)c1ccccn1 | 116 | 76800 | – | – | Active | – |
| O=C(Cc1cc(Br)cc(Br)c1OC(=O)c1ccccc1Cl)N[C@H]1CCOC1=O | – | – | 0.896 | 105 | – | – |
| O=C(Cc1cc(Br)cc(Br)c1OC(=O)c1ccccc1Cl)Nc1ccc([N+](=O)[O-])cc1 | – | – | < 50000 | 0 | – | – |
| O=C(Cc1cc(Br)cc(Br)c1OC(=O)c1ccccc1Cl)Nc1ccccc1[N+](=O)[O-] | – | – | 372 | 105 | – | – |
| O=C(Cc1cc(Br)cc(Br)c1OC(=O)c1ccccc1I)Nc1ccccc1[N+](=O)[O-] | – | – | 1580 | 50 | – | – |
| O=C(Cc1cc(Br)cc(Br)c1OC(=O)c1ccc(Br)cc1)Nc1ccccc1[N+](=O)[O-] | – | – | < 50000 | 35 | – | – |
| O=C(NCc1cc(Br)cc(Br)c1OC(=O)c1ccccc1Cl)c1cccnc1 | 0 | > 100000 | 0.488 | 31 | – | – |
| O=C(Cc1cc(Br)cc(Br)c1OC(=O)c1ccccc1Cl)Nc1cccc([N+](=O)[O-])c1 | – | – | < 50000 | 0 | – | – |
| CCCCCCCCCC(=O)CC(=O)N[C@H]1CCOC1=O | – | – | 64700 to 72900 | – | – | – |
| O=C(Cc1cc(Br)cc(Br)c1OC(=O)c1ccc(Cl)cc1)Nc1ccccc1[N+](=O)[O-] | – | – | < 50000 | 0 | – | – |
| Cc1ccc(C(=O)Oc2c(Br)cc(Br)cc2CC(=O)Nc2ccccc2[N+](=O)[O-])cc1 | – | – | < 50000 | 33 | – | – |
| O=C(Cc1cc(Br)cc(Br)c1OC(=O)c1cccc(Br)c1)Nc1ccccc1[N+](=O)[O-] | – | – | < 50000 | 44 | – | – |
| O=C(Cc1cc(Br)cc(Br)c1OC(=O)c1ccccc1[N+](=O)[O-])Nc1ccccc1[N+](=O)[O-] | – | – | 489 | 37 | – | – |
| O=C(Cc1cc(Br)cc(Br)c1OC(=O)c1ccccc1Br)Nc1ccccc1[N+](=O)[O-] | – | – | 271 | 82 | – | – |
| O=C(Cc1cc(Br)cc(Br)c1OCc1c(Cl)cccc1Cl)Nc1ccccc1[N+](=O)[O-] | – | – | 161 | 56 | – | – |

| SMILES | Imax (Pseudomonas aeruginosa [1]) [%] | IC50 [2] [nM] | EC50 [3] [nM] | Emax (Pseudomonas aeruginosa [4]) [%] | inhibition (Pseudomonas aeruginosa [5]) | IC50 [6] [nM] |
| --- | --- | --- | --- | --- | --- | --- |
| O=C(Cc1cc(Br)cc(Br)c1OC(=O)CCCN1C(=O)C=CC1=O)N[C@H]1CCOC1=O | 109 | > 100000 | – | – | Active | – |
| O=C(Cc1cc(Br)cc(Br)c1OC(=O)c1c(Cl)cccc1Cl)Nc1ccccc1[N+](=O)[O-] | – | – | 313 | 95 | – | – |
| O=C(Cc1cc(Br)cc(Br)c1OC(=O)c1ccccc1Cl)Nc1ccccn1 | 122 | 42000 | < 50000 | 0 | – | – |
| O=C(Cc1cc(Br)cc(Br)c1OC(=O)c1ccccc1Cl)Nc1ccncc1[N+](=O)[O-] | – | – | 446 | 112 | – | – |
| O=C(Cc1cc(Br)cc(Br)c1OC(=O)c1ccccc1)Nc1ccccc1[N+](=O)[O-] | – | – | < 50000 | 0 | – | – |
| O=C(Cc1cc(Br)cc(Br)c1OC(=O)c1ccccc1Cl)Nc1cccc(F)c1F | 0 | > 100000 | 45.6 | 116 | – | – |
| O=C(Cc1cc(Br)cc(Br)c1OC(=O)c1ccccc1F)Nc1ccccc1[N+](=O)[O-] | – | – | 1290 | 76 | – | – |
| COc1ccccc1C(=O)Oc1c(Br)cc(Br)cc1CC(=O)Nc1ccccc1[N+](=O)[O-] | – | – | 246 | 45 | – | – |
| Cc1ccccc1C(=O)Oc1c(Br)cc(Br)cc1CC(=O)Nc1ccccc1[N+](=O)[O-] | – | – | 757 | 85 | – | – |
| O=C(Cc1cc(Br)cc(Br)c1OC(=O)CCN1C(=O)C=CC1=O)N[C@H]1CCOC1=O | 115 | 23800 | – | – | Active | – |
| O=C(Oc1c(Br)cc(Br)cc1CNC(=O)c1cccc(F)c1F)c1ccccc1Cl | 80 | 64500 | > 50000 | 0 | – | – |
| O=C(Cc1cc(Br)cc(Br)c1OC(=O)c1ccccc1Cl)Nc1cc(F)c(F)cc1[N+](=O)[O-] | – | – | 335 | 89 | – | – |
| O=C(Cc1ccc(Br)cc1)N[C@H]1CCOC1=O | – | – | – | – | – | 26300 |
| O=C(Cc1cc(Br)cc(Br)c1OC(=O)c1ccc(F)cc1)Nc1ccccc1[N+](=O)[O-] | – | – | < 50000 | 39 | – | – |
| O=C(Cc1cc(Br)cc(Br)c1OC(=O)c1cccc(Cl)c1)Nc1ccccc1[N+](=O)[O-] | – | – | < 50000 | 0 | – | – |
| O=C(NCc1cc(Br)cc(Br)c1OC(=O)c1ccccc1Cl)c1ccccn1 | 105 | 79300 | > 50000 | 0 | – | – |
| Cc1cccc(C(=O)Oc2c(Br)cc(Br)cc2CC(=O)Nc2ccccc2[N+](=O)[O-])c1 | – | – | < 50000 | 24 | – | – |
